A short description of series [1]: Chemical stability assessment (UHPLC-UV purity loss on storage in solution). The note with it: Chemical stability buffer system A: 20 mM phosphate buffer pH 7.4; ~300 μM. The format is physicochemical. The protocol: Purity of a peptide batch was determined through UHPLC/MS prior to chemical stability measurement. The target concentration was 300 μM pure compound. Solutions from solid samples were prepared in the following buffer systems with a concentration of ˜300 μM compound based on the previously determined % purity: • Chemical stability buffer system A) 20 mM phosphate buffer pH 7.4, • Chemical stability buffer system B) 8 mM phosphate buffer pH 7.4, 14 mg/ml propylene glycol, 5.5 mg/ml phenol • Chemical stability buffer system C) 100 mM phosphate buffer pH 7.4, 2.7 mg/ml m-cresol
Prepared solutions were filtered through […] pore size and filled into sterilized glass containers under laminar flow conditions.
Glass containers were stored for 28 days at 5 and 40° C. After this time, the samples were centrifuged for 15 min at 2500 RCF. Then 1.5 μl of the undiluted supernatant were analysed with UHPLC-UV.
The chemical stability was rated through the relative loss of purity calculated by the equation: […]
The purity is calculated as
The analytical methods used were Analytical UHPLC Method B or C.
Peptide samples were prepared in Chemical stability buffer system A or B and stability was assessed as described in Methods.

Series [2] can be described thus: ThT assay for the assessment of physical stability (fibrillation). The format is physicochemical. The note with it: ThT buffer system A: 100 mM phosphate buffer pH 7.4; 3 mg/ml, 37° C., shaking. The source says: Low physical stability of a peptide solution may lead to amyloid fibril formation, which is observed as well-ordered, thread-like macromolecular structures in the sample, which eventually may lead to gel formation. Thioflavin T (ThT) is widely used to visualize and quantify the presence of misfolded protein aggregates [Biancalana et al., Biochim. Biophys. Acta 2010, 1804(7), 1405]. […] Enzymol. 1999, 309, 274]. The time course for fibril formation often follows the characteristic shape of a sigmoidal curve and can be separated into three regions: a lag phase, a fast growth phase, and a plateau phase. The typical fibril formation process starts with the lag phase in which the amount of partially folded peptide turned into fibrils is not significant enough to be detected. The lag-time corresponds to the time the critical mass of the nucleus is built. Afterwards, a drastic elongation phase follows, and fibril concentration increases rapidly. Investigations were carried out to determine fibrillation tendencies under stress conditions by shaking at 37° C. within Fluoroskan Ascent FL or Fluoroskan Ascent. For the tests in Fluoroskan Ascent (FL), 200 μl sample were placed into a 96-well mictrotiter plate PS, flat bottom, Greiner Fluotrac No. 655076. Plates were sealed with Scotch Tape (Qiagen). Samples were stressed by continuous cycles of 10 sec shaking at 960 rpm and 50 sec rest period at 37° C. The kinetic was monitored by measuring fluorescence intensity every 20 min. Peptides were diluted in a buffer system to a final concentration of 3 mg/ml. 20 μl of a 10.1 mM ThT solution in H2O were added to 2 ml of peptide solution to receive a final concentration of 100 μM ThT. For each sample eight replicates were tested. • ThT buffer system A) 100 mM phosphate buffer pH 7.4 • ThT buffer system B) 100 mM phosphate buffer pH 7.4, 2.7 mg/ml m-cresol Lag time in hours (h) in Thioflavin T (ThT) assay of peptide samples was determined in ThT buffer system A as described in Methods.

Series [3] concerns the target human GLP-1 receptor (hGLP-1R) (Homo sapiens, UniProt P43220). As to the kind of experiment: Binding assay, displacement of [125I]GLP-1 from HEK-293 membranes over-expressing GLP-1R (SPA). Conditions: [125I]GLP-1 displacement. The gist of the method: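 Membranes from HEK-293 cells over-expressing human GIPR or GLP-1R, isolated by homogenising, sonicating and ultracentrifuging at 100000×g into HEPES/EDTA/NaCl buffer with protease inhibitors, were used for binding.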
(In a radioligand displacement assay an active substance lowers the binding of a labelled ligand.)

A short description of series [4]: Solubility assessment (UHPLC-UV of supernatant, target 10 mg/ml). The note with it: for Soluble amount: pH 7.4. The format is physicochemical. The gist of the method:
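Peptides at 10 mg/ml (purity-corrected) in 100 mM phosphate pH 7.4, optionally with 2.7 mg/ml m-cresol; gentle agitation 1 h, then 5° C. overnight (24 h). Supernatant after 15 min centrifugation at 2500 RCF quantified by UHPLC-UV, with sequence-based extinction coefficients.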

Each structure is given as a SMILES string. Numbered stars: 1 amine (or outer) side, 2 acyl side, 3 side chain; on linkers, the order of the positions; unused ones are H or OH. Square brackets hold non-standard residues; d marks the D form. Side chains are listed from the residue outwards. Peptide text beside a SMILES is read from it. * marks the point of attachment. C18 diacid = O=C(O)CCCCCCCCCCCCCCCCC(=O)*; γGlu = O=C(O)[C@H](CCC(=O)[*:2])N[*:1]; dIva = CC[C@@](C)(N)C(=O)O; AEEA = NCCOCCOCC(=O)O; Aib = CC(C)(N)C(=O)O Bounds are passed on as bounds.

A word on the IC50: it is the concentration that inhibits the measured activity by half. Read a low IC50 as inhibition by little substance. The solubility is the dissolved amount per volume that the medium holds. A lower solubility goes with a poorly soluble substance.

Consider `CC[C@H](C)[C@H](NC(=O)[C@H](CCC(=O)O)NC(=O)[C@H](CCC(=O)O)NC(=O)[C@H](CCCCNC(=O)COCCOCCNC(=O)COCCOCCNC(=O)CC[C@H](NC(=O)CCCCCCCCCCCCCCCCC(=O)O)C(=O)O)NC(=O)C(C)(C)NC(=O)[C@@H](NC(=O)[C@H](CO)NC(=O)[C@H](CC(C)C)NC(=O)[C@H](CC(=O)O)NC(=O)[C@H](CO)NC(=O)[C@@H](NC(=O)[C@H](Cc1ccccc1)NC(=O)[C@@H](NC(=O)CNC(=O)[C@H](CCC(=O)O)NC(=O)C(C)(C)NC(=O)[C@@H](N)Cc1ccc(O)cc1)[C@@H](C)O)[C@@H](C)CC)[C@@H](C)CC)C(=O)N[C@@H](Cc1c[nH]cn1)C(=O)N[C@@H](CCC(N)=O)C(=O)NC(C)(C)C(=O)N[C@@H](CCC(=O)O)C(=O)N[C@@H](Cc1ccccc1)C(=O)N[C@H](C(=O)N[C@@H](CCC(=O)O)C(=O)N[C@@H](Cc1c[nH]c2ccccc12)C(=O)N[C@@H](CC(C)C)C(=O)N[C@@H](CC(C)C)C(=O)N[C@@H](C)C(=O)N[C@@H](CCC(N)=O)C(=O)NCC(=O)N1CCC[C@H]1C(=O)N[C@@H](CO)C(=O)N[C@@H](CO)C(=O)NCC(=O)N[C@@H](C)C(=O)N1CCC[C@H]1C(=O)N1CCC[C@H]1C(=O)N1CCC[C@H]1C(=O)N[C@@H](CO)C(N)=O)[C@@H](C)CC` [SEQ ID NO: 19, H2N-Y-Aib-E-G-T-F-I-S-D-L-S-I-Aib-K[{AEEA}2-gGlu-C18OH]-E-E-I-H-Q-Aib-E-F-I-E-W-L-L-A-Q-G-P-S-S-G-A-P-P-P-S-NH2] (H-Y[Aib]EGTFISDLSI[Aib]K([AEEA-AEEA-γGlu-C18 diacid])EEIHQ[Aib]EFIEWLLAQGPSSGAPPPS-NH2), for which, in series [1], the “Relative purity loss over 28 days at 40° C.” value (from here on “Relative purity loss”) is reported as 4.3%. Besides, in series [2], the “Increase in FI” value is “no” and the “Lag time before increase” value is above 45 h. In series [3], this molecule gave an IC50 of 183 nM.
`CC[C@H](C)[C@H](NC(=O)[C@H](Cc1ccccc1)NC(=O)[C@H](CCC(=O)O)NC(=O)[C@H](CCC(=O)O)NC(=O)[C@H](CCC(N)=O)NC(=O)[C@H](Cc1c[nH]cn1)NC(=O)[C@@H](NC(=O)[C@H](CCCNC(=N)N)NC(=O)[C@H](CC(=O)O)NC(=O)[C@H](CCCCNC(=O)COCCOCCNC(=O)COCCOCCNC(=O)CC[C@H](NC(=O)CCCCCCCCCCCCCCCCC(=O)O)C(=O)O)NC(=O)C(C)(C)NC(=O)[C@@H](NC(=O)[C@H](CO)NC(=O)[C@H](CC(C)C)NC(=O)[C@H](CC(=O)O)NC(=O)[C@H](CO)NC(=O)[C@@H](NC(=O)[C@H](Cc1ccccc1)NC(=O)[C@@H](NC(=O)CNC(=O)[C@H](CCC(=O)O)NC(=O)C(C)(C)NC(=O)[C@@H](N)Cc1ccc(O)cc1)[C@@H](C)O)[C@@H](C)CC)[C@@H](C)CC)[C@@H](C)CC)C(=O)N[C@@H](CCC(N)=O)C(=O)N[C@@H](Cc1c[nH]c2ccccc12)C(=O)N[C@@H](CC(C)C)C(=O)N[C@@H](CC(C)C)C(=O)N[C@@H](C)C(=O)N[C@@H](CCC(N)=O)C(=O)NCC(=O)N1CCC[C@H]1C(=O)N[C@@H](CO)C(=O)N[C@@H](CO)C(=O)NCC(=O)N[C@@H](C)C(=O)N1CCC[C@H]1C(=O)N1CCC[C@H]1C(=O)N1CCC[C@H]1C(=O)N[C@@H](CO)C(N)=O` [SEQ ID NO: 35, H2N-Y-Aib-E-G-T-F-I-S-D-L-S-I-Aib-K[{AEEA}2-gGlu-C18OH]-DRIHQEEFIQWLLAQGPSSGAPPPS-NH2] (H-Y[Aib]EGTFISDLSI[Aib]K([AEEA-AEEA-γGlu-C18 diacid])DRIHQEEFIQWLLAQGPSSGAPPPS-NH2): the “Relative purity loss” value in series [1] is on record as 8.3%. Also, in series [2], the “Increase in FI” value is listed as “no” and the “Lag time before increase” value was above 45 h. Moreover, in series [4] (24 h), the Soluble amount is above 9.7 mg/mL. The molecule also registered a solubility at 24 h in series [4] (pH 7.4, Soluble amount) above 9500 µg/mL. In series [3], this molecule had an IC50 above 100 nM.
In the case of `CC[C@H](C)[C@H](NC(=O)[C@H](CCCNC(=N)N)NC(=O)[C@H](CC(=O)O)NC(=O)[C@H](CCCCNC(=O)COCCOCCNC(=O)COCCOCCNC(=O)CC[C@H](NC(=O)CCCCCCCCCCCCCCCCC(=O)O)C(=O)O)NC(=O)C(C)(C)NC(=O)[C@@H](NC(=O)[C@H](CO)NC(=O)[C@H](CC(C)C)NC(=O)[C@H](CC(=O)O)NC(=O)[C@H](CO)NC(=O)[C@@H](NC(=O)[C@H](Cc1ccccc1)NC(=O)[C@@H](NC(=O)CNC(=O)[C@H](CCC(=O)O)NC(=O)C(C)(C)NC(=O)[C@@H](N)Cc1ccc(O)cc1)[C@@H](C)O)[C@@H](C)CC)[C@@H](C)CC)C(=O)N[C@@H](Cc1c[nH]cn1)C(=O)N[C@@H](CCC(N)=O)C(=O)NC(C)(C)C(=O)N[C@@H](CCC(=O)O)C(=O)N[C@@H](Cc1ccccc1)C(=O)N[C@H](C(=O)N[C@@H](CCC(=O)O)C(=O)N[C@@H](Cc1c[nH]c2ccccc12)C(=O)N[C@](C)(CC)C(=O)N[C@@H](CC(C)C)C(=O)N[C@@H](C)C(=O)N[C@@H](CCC(N)=O)C(=O)NCC(=O)N1CCC[C@H]1C(=O)N[C@@H](CO)C(=O)N[C@@H](CO)C(=O)NCC(=O)N[C@@H](C)C(=O)N1CCC[C@H]1C(=O)N1CCC[C@H]1C(=O)N1CCC[C@H]1C(=O)N[C@@H](CO)C(N)=O)[C@@H](C)CC` [SEQ ID NO: 31, H2N-Y-Aib-E-G-T-F-I-S-D-L-S-I-Aib-K[{AEEA}2-gGlu-C18OH]-D-R-I-H-Q-Aib-E-F-I-E-W-Iva-L-A-Q-G-P-S-S-G-A-P-P-P-S-NH2] (H-Y[Aib]EGTFISDLSI[Aib]K([AEEA-AEEA-γGlu-C18 diacid])DRIHQ[Aib]EFIEW[dIva]LAQGPSSGAPPPS-NH2), in series [1], the “Relative purity loss” value stood at 6.2%. In series [2], the “Increase in FI” value is reported as “no” and the “Lag time before increase” value is listed as above 45 h. The Soluble amount in series [4] is 9.6 mg/mL. Further, in series [4] (pH 7.4, Soluble amount), the solubility was above 10000 µg/mL.

Source of the values: patent publication US20240360194A1, “New Peptides as Potent and Selective GIP Receptor Agonists” (Sanofi, priority 2021, published 2024).
